Data reported in US20250154198A1, “PEPTIDE INHIBITORS OF INTERLEUKIN-23 RECEPTOR” (Zealand Pharma A/S, priority 2021, published 2025).
*1 amine or outer side, *2 acyl side, *3 side chain or, on linkers, in order; H or OH if unused. Where a SMILES comes first, the peptide text is derived from it. Bridges are numbered along the chain shown (N, C = ends). [ ]: non-standard residue; d: D form. The star is where a group is joined. Me3N+(CH2)2O(CH2)2O(CH2)2CO = C[N+](C)(C)CCOCCOCCC(=O)*; Trp(4-F) = N[C@@H](Cc1c[nH]c2cccc(F)c12)C(=O)O; 2Nal = N[C@@H](Cc1ccc2ccccc2c1)C(=O)O; AEF = NCCOc1ccc(C[C@H](N)C(=O)O)cc1; X1 = O=C(Cc1ccc(CN[*:1])cc1)[*:2]; 4Pal = N[C@@H](Cc1ccncc1)C(=O)O; αMeL = CC(C)C[C@](C)(N)C(=O)O; CH2COCH2 = O=C(C[*:1])C[*:2]; 3Amb = NCc1cccc(C(=O)O)c1; dDab = NCC[C@@H](N)C(=O)O; Dab = NCC[C@H](N)C(=O)O; βAla = NCCC(=O)O

Biological target: T1, human IL-23R (Homo sapiens, UniProt Q5VWK5)
T1 construct: UniProtKB—Q5VWK5, amino acids 22-629; secretion signal of the plasmid (Promega N1371); expressed in transfected cells
T1 sequence (Q5VWK5 22-629): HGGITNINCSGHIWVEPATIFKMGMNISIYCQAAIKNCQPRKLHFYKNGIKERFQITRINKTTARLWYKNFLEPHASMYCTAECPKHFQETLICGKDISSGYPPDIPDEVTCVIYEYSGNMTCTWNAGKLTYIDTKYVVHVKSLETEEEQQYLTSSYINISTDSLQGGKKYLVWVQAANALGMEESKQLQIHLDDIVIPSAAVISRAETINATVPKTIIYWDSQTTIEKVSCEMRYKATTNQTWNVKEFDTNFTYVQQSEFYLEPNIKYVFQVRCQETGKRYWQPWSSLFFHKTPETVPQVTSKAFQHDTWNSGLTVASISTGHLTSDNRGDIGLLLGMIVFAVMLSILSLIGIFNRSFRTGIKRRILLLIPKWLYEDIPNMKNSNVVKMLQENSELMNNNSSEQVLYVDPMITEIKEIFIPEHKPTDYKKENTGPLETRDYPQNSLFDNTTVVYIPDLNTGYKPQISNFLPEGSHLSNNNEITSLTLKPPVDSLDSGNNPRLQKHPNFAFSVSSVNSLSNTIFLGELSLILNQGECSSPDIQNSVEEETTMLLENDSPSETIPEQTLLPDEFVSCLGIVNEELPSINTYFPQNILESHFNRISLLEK
Assay: Binding assay (NanoBRET displacement of fluorophore-labelled reference compound) for estimating binding affinity to human IL-23R
Settings: Table 3-1; read-out: Ki hIL-23R
Source text: Binding Assay for Estimating Binding Affinity of Compounds to Human IL-23R
The compound binding affinity for IL-23R was estimated by the ability of compounds to displace a fluorophore-labelled reference compound from the human IL-23R. The assay principle relies on Bioluminescence Resonance Energy Transfer (BRET) between a fluorophore-labelled reference compound binding to the IL-23R part of a fusion protein consisting of the IL-23R fused to a Nanoluc luciferase enzyme (Nanoluc). The Nanoluc is placed in the N-terminus in close proximity to the binding domain of the ligand. Upon close proximity between the fluorophore of the fluorophore-labelled compound and the Nanoluc of the fusion protein, bioluminescence energy generated from conversion of a Nanoluc substrate, is transferred to the fluorophore resulting in an increase in BRET. In presence of an unlabelled compound, the unlabelled compound displaces the fluorophore-labelled peptide from its binding site resulting in a decrease in BRET. The concentration for which half of the fluorophore-labelled peptide is displaced by the unlabelled compound depends on the affinity of the compound for the IL-23R, and is termed the IC50 concentration. An estimated affinity (K) of the unlabelled compound for the IL-23R may be calculated using the Cheng-Prussov equation, which takes into account the concentration of the fluorophore-labelled compound used, and the affinity of the fluorophore-labelled compound for IL-23R.
The plasmid also contained a gene to confer resistance for the antibiotic hygromycin. A cell line stably expressing the Nluc-IL23R fusion protein was generated by transfection of HEK293 cells with the expression plasmid and selected with hygromycin for 3 weeks in Growth medium consisting of DMEM w/Glutamax-I containing, 10% V/V FBS, 1% V/V P/S, 1 mM Sodium Pyruvate, and 1×NEAA, and 0.3 mg/mL hygromycin. The remaining cells were propagated and considered a stable expressing Nluc-IL23R fusion protein pool clone.
Cells expressing the Nluc-IL23R fusion protein were expanded in Growth medium and membranes prepared by homogenization of a cell pellet from 18 T175 flasks (4° C. in subsequent steps). The cell pellet was lysed Tris 10 mM, 7.5, 1 mM EDTA and protease inhibitors (Complete, Roche) and homogenized using a 15 mL glass-dounce by 50 strokes. The homogenate was spun at spin @1500 rpm for 10 min, the supernatant transferred to SV-34 tubes and spun at 40000 g for 20 min at 4° C. to pellet the crude membranes. The supernatant was then removed, the pellet resuspended in 5 mL buffer containing 50 mM HEPES pH 7.4, 5 mM EGTA, and 5 mM MgCl2, and homogenized. Aliquots of the resuspended and homogenized membranes containing the Nluc-IL23R fusion protein were stored at −80° C. until use.
The plate was sealed with light impermeable plate seals, and incubated on a orbital shaker 400 rpm for 2 hours at room temperature. To determine the BRET ratio, the plate seal was removed and 25 μL of the Nanoluc substrate (Promega N1572) diluted 1:500 was added to each well and incubated for 1-2 minutes on an orbital shaker at 400 rpm. […] The BRET ratio was calculated as the fluorescence from the TAMRA/nanoluc bioluminescence. The IC50 for each compound was determined by computer-aided curve fitting using a 4-parameter logistic (4PL) non-linear model.

Ki [pM] | SMILES
2090 | CC(C)C[C@]1(C)NC(=O)[C@H](Cc2ccc3ccccc3c2)NC(=O)[C@H](Cc2ccc(OCCN)cc2)NC(=O)[C@@H]2CSCC(=O)CSC[C@H](NC(=O)[C@H](CO)NC(=O)c3cccc(c3)CNC(=O)CC[C@@H](C(=O)N[C@@H](CCCNC(=N)N)C(=O)N[C@@H](Cc3ccncc3)C(N)=O)NC1=O)C(=O)N[C@@H](Cc1c[nH]c3ccccc13)C(=O)N[C@@H](CCC(N)=O)C(=O)N2 [Compound 79, [(3-Aminomethyl)benzoyl](1c)*SC(2a)WQC(2a)[Y(2-aminoethoxy)][2-Nal][2-Me-Leu]E(1c)R[3-(4-Pyridyl)-Ala]-[NH2]] ([3Amb]SCWQC[AEF][2Nal][αMeL]ER[4Pal]-NH2; linker 3-6 via CH2COCH2; lactam N-10)
922 | CC(=O)N[C@H]1CCCCNC(=O)CC[C@@H](C(=O)N[C@H](CCCNC(=N)N)C(N)=O)NC(=O)[C@](C)(CC(C)C)NC(=O)[C@H](Cc2ccc3ccccc3c2)NC(=O)[C@H](Cc2ccc(OCCN)cc2)NC(=O)[C@@H]2CSCC(=O)CSC[C@H](NC(=O)[C@H](CO)NC1=O)C(=O)N[C@@H](Cc1c[nH]c3ccccc13)C(=O)N[C@@H](CCC(N)=O)C(=O)N2 [Compound 84, [Ac]-K(1c)SC(2a)WQC(2a)[Y(2-aminoethoxy)][2-Nal][2-Me-Leu]E(1c)[{d}R]-[NH2]] (Ac-KSCWQC[AEF][2Nal][αMeL]E[dR]-NH2; lactam 1-10; linker 3-6 via CH2COCH2)
99.5 | CC(C)C[C@]1(C)NC(=O)[C@H](Cc2ccc3ccccc3c2)NC(=O)[C@H](Cc2ccc(OCCN)cc2)NC(=O)[C@@H]2CSCC(=O)CSC[C@H](NC(=O)[C@H](CO)NC(=O)Cc3ccc(cc3)CNC(=O)CC[C@@H](C(=O)N[C@H](CCCNC(=N)N)C(=O)O)NC1=O)C(=O)N[C@@H](Cc1c[nH]c3ccccc13)C(=O)N[C@@H](CCC(N)=O)C(=O)N2 [Compound 108, [4-Aminomethyl-phenylacetyl](1c)*SC(2a)WQC(2a)[Y(2-aminoethoxy)][2-Nal][2-Me-Leu]E(1c)[{d}R]-[OH]] ([X1]SCWQC[AEF][2Nal][αMeL]E[dR]-OH; linker 3-6 via CH2COCH2; lactam N-10)
460 | CC(C)C[C@]1(C)NC(=O)[C@H](Cc2ccc3ccccc3c2)NC(=O)[C@H](Cc2ccc(OCCN)cc2)NC(=O)[C@@H]2CSCC(=O)CSC[C@H](NC(=O)[C@H](CO)NC(=O)Cc3ccc(cc3)CNC(=O)CC[C@@H](C(=O)N[C@H](CCNC(=O)CCOCCOCC[N+](C)(C)C)C(N)=O)NC1=O)C(=O)N[C@@H](Cc1c[nH]c3ccccc13)C(=O)N[C@@H](CCC(N)=O)C(=O)N2 [Compound 109, [4-Aminomethyl-phenylacetyl](1c)*SC(2a)WQC(2a)[Y(2-aminoethoxy)][2-Nal][2-Me-Leu]E(1c)[{d}2,4-Diaminobutanoyl([2-(trimethyl-2-aminoethoxy)ethoxy]propyl)]-[NH2]] ([X1]SCWQC[AEF][2Nal][αMeL]E[dDab](Me3N+(CH2)2O(CH2)2O(CH2)2CO)-NH2; linker 3-6 via CH2COCH2; lactam N-10)
182 | CC(C)C[C@]1(C)NC(=O)[C@H](Cc2ccc3ccccc3c2)NC(=O)[C@H](Cc2ccc(OCCN)cc2)NC(=O)[C@@H]2CSCC(=O)CSC[C@H](NC(=O)[C@H](CO)NC(=O)Cc3ccc(cc3)CNC(=O)CC[C@@H](C(=O)N[C@H](CCC(N)=O)C(N)=O)NC1=O)C(=O)N[C@@H](Cc1c[nH]c3ccccc13)C(=O)N[C@@H](CCC(N)=O)C(=O)N2 [Compound 115, [4-Aminomethyl-phenylacetyl](1c)*SC(2a)WQC(2a)[Y(2-aminoethoxy)][2-Nal][2-Me-Leu]E(1c)[{d}Q]-[NH2]] ([X1]SCWQC[AEF][2Nal][αMeL]E[dQ]-NH2; linker 3-6 via CH2COCH2; lactam N-10)
188 | CC(C)C[C@]1(C)NC(=O)[C@H](Cc2ccc3ccccc3c2)NC(=O)[C@H](Cc2ccc(OCCN)cc2)NC(=O)[C@@H]2CSCC(=O)CSC[C@H](NC(=O)[C@H](CO)NC(=O)Cc3ccc(cc3)CNC(=O)CC[C@@H](C(=O)N[C@H](Cc3c[nH]cn3)C(N)=O)NC1=O)C(=O)N[C@@H](Cc1c[nH]c3ccccc13)C(=O)N[C@@H](CCC(N)=O)C(=O)N2 [Compound 117, [4-Aminomethyl-phenylacetyl](1c)*SC(2a)WQC(2a)[Y(2-aminoethoxy)][2-Nal][2-Me-Leu]E(1c)[{d}H]-[NH2]] ([X1]SCWQC[AEF][2Nal][αMeL]E[dH]-NH2; linker 3-6 via CH2COCH2; lactam N-10)
303 | CC(C)C[C@]1(C)NC(=O)[C@H](Cc2ccc3ccccc3c2)NC(=O)[C@H](Cc2ccc(OCCN)cc2)NC(=O)[C@@H]2CSCC(=O)CSC[C@H](NC(=O)[C@H](CO)NC(=O)Cc3ccc(cc3)CNC(=O)CC[C@@H](C(=O)NCCC(N)=O)NC1=O)C(=O)N[C@@H](Cc1c[nH]c3ccccc13)C(=O)N[C@@H](CCC(N)=O)C(=O)N2 [Compound 119, [4-Aminomethyl-phenylacetyl](1c)*SC(2a)WQC(2a)[Y(2-aminoethoxy)][2-Nal][2-Me-Leu]E(1c)[3-Aminopropanoyl]-[NH2]] ([X1]SCWQC[AEF][2Nal][αMeL]E[βAla]-NH2; linker 3-6 via CH2COCH2; lactam N-10)
718 | CC(C)C[C@]1(C)NC(=O)[C@H](Cc2ccc3ccccc3c2)NC(=O)[C@H](Cc2ccc(OCCN)cc2)NC(=O)[C@@H]2CCNC(=O)CC[C@H](NC(=O)[C@H](C(C)C)NC(=O)Cc3ccc(cc3)CNC(=O)CC[C@@H](C(=O)N[C@@H](CCN)C(N)=O)NC1=O)C(=O)N[C@@H](Cc1c[nH]c3ccccc13)C(=O)N[C@@H](CCC(N)=O)C(=O)N2 [Compound 126, [4-Aminomethyl-phenylacetyl](1c)*VE(2c)WQ[Dab](2c)[Y(2-aminoethoxy][2-Nal][2-Me-Leu]E(1c)[Dab]-[NH2]] ([X1]VEWQ[Dab][AEF][2Nal][αMeL]E[Dab]-NH2; lactam 3-6, N-10)
170 | CC(C)[C@]1(C)NC(=O)[C@H](Cc2ccc3ccccc3c2)NC(=O)[C@H](Cc2ccc(OCCN)cc2)NC(=O)[C@@H]2CCNC(=O)CC[C@H](NC(=O)[C@H](CO)NC(=O)Cc3ccc(cc3)CNC(=O)CC[C@@H](C(=O)N[C@@H](CCN)C(N)=O)NC1=O)C(=O)N[C@@H](Cc1c[nH]c3ccccc13)C(=O)N[C@@H](CCC(N)=O)C(=O)N2 [Compound 136, [4-Aminomethyl-phenylacetyl](1c)*SE(2c)WQ[Dab](2c)[Y(2-aminoethoxy)][2-Nal][2-Me-Val]E(1c)[Dab]-[NH2]]
723 | CC(C)C[C@]1(C)NC(=O)[C@H](Cc2ccc3ccccc3c2)NC(=O)[C@H](Cc2ccc(OCCN)cc2)NC(=O)[C@@H]2CCNC(=O)CC[C@H](NC(=O)[C@H](CO)NC(=O)Cc3ccc(cc3)CNC(=O)CC[C@@H](C(=O)N[C@@H](CCN)C(N)=O)NC1=O)C(=O)N[C@@H](Cc1c[nH]c3cccc(F)c13)C(=O)N[C@@H](CCC(N)=O)C(=O)N2 [Compound 138, [4-Aminomethyl-phenylacetyl](1c)*SE(2c)[4-F-Trp]Q[Dab](2c)[Y(2-aminoethoxy)][2-Nal][2-Me-Leu]E(1c)[Dab]-[NH2]] ([X1]SE[Trp(4-F)]Q[Dab][AEF][2Nal][αMeL]E[Dab]-NH2; lactam 3-6, N-10)
